Reference: patent US20250172577A1, “METHODS FOR THE DETECTION AND TREATMENT OF CANCER” (Board of Regents, The University of Texas System, priority 2022, published 2025)
Like-named read-outs stand apart in the source and are kept apart here.

Legend:
LGKC 4301 cells = test: In vitro toxicity assay (MTS assay), mouse IPMN cell line LGKC 4301; format: cell-based; details: vs vehicle control
Experimental: (§1) Experiments were performed in technical triplicates. Statistical significance was determined by 2-sided Student T-test. […] UGT8 inhibitor UGT8-IN-1 or vehicle control (saline) was orally administrated every other day (3 mg/kg) from day-8 post cancer cell implantation for 2 weeks. Tumor volume was measured every 3 days. Statistical significance was determined by 2-way repeated measures ANOVA and treatment factor 2-sided p-value reported.
(§2) In vitro toxicity assays (MTS assays) were performed using three independent mouse IPMN cell lines (LGKC 4301, LGKC 4838, and LGKC 4861). Briefly, each cell line was treated with either vehicle control or the UGT8 inhibitors UGT8-IN-1 or zoledronic acid. Experiments were performed in technical triplicates. Statistical significance was determined by 2-sided Student T-test.

[1] = In vitro toxicity assay (MTS assay), mouse IPMN cell line LGKC 4861; format: cell-based
Experimental: as §1, §2

[2] = tested on: mouse IPMN cell line LGKC 4861; test: Subcutaneous LGKC 4861 implant in athymic nude mice, tumor volume; format: in vivo; details: 3 mg/kg orally every other day from day 8 for 2 weeks, vs vehicle (saline)
UGT8 = molecular target: T1, UGT8 (Mus musculus, UniProt Q64676); details: cited from earlier work
T1 construct: host or cells: mouse (in vivo, endogenous enzyme)
T1 sequence (Q64676 21-541): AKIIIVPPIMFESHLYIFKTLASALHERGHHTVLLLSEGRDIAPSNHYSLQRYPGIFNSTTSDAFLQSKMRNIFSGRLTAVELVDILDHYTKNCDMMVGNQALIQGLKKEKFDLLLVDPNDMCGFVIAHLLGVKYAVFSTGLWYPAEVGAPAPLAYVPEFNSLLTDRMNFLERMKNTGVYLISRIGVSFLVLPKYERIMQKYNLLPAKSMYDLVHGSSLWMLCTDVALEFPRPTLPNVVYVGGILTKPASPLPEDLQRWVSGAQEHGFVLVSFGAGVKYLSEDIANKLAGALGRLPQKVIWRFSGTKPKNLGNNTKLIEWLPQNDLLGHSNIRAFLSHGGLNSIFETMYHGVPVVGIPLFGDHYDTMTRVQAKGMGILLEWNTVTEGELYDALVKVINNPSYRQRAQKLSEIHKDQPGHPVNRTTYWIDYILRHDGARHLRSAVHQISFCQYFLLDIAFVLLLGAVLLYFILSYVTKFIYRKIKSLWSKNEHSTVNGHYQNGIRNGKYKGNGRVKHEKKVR

LGKC 4838 cells = test: In vitro toxicity assay (MTS assay), mouse IPMN cell line LGKC 4838; format: cell-based; details: vs vehicle control
Experimental: as §1, §2

Question: For `CNC(=O)c1csc2c(C(F)(F)F)cc(N3CCC(OC(=O)NC(C)COC(F)(F)F)CC3)nc12` (stereo in doubt) [UGT8-IN-1, [1-[3-(methylcarbamoyl)-7-(trifluoromethyl)thieno[3,2-b]pyridin-5-yl]piperidin-4-yl]N-[(2S)-1-(trifluoromethoxy)propan-2-yl]carbamate], which “effect on cell viability (comparison of the two UGT8 inhibitors)” value (LGKC 4301 cells) is on record?
Answer: slightly more effective

Question: And the cytotoxicity [1]?
Answer: ~80%

Question: And the tumor volume [2]?
Answer: lower tumor volume compared to vehicle

Question: And the “inhibition of incorporation of 13C-Gal into GalCer and sulfatide” value (UGT8; 3 mg/kg)?
Answer: > 90%

Question: What about the “effective dose (ED)50” value (UGT8; incorporation of 13C-Gal into GalCer and sulfatide) of the same molecule?
Answer: 1 mg/kg

Question: Which “effect on cell viability (comparison of the two UGT8 inhibitors)” value (LGKC 4301 cells) does the source give for `O=P(O)(O)C(O)(Cn1ccnc1)P(=O)(O)O` [zoledronic acid, Zoledronic acid] here?
Answer: performed similarly

Question: And the “reduction in cell viability (comparison of the two UGT8 inhibitors)” value (LGKC 4838 cells)?
Answer: greater reduction in cell viability than UGT8-IN-1

Question: And the cytotoxicity ([1]; LGKC 4861 mouse IPMN cells, LGKC 4861 cells, MTS assay, vs vehicle control, read-out: reduction in cell viability)?
Answer: ~55%
